Measured values published in PubChem BioAssay (NCI).
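At the GI50, growth is halved. TGI denotes the concentration required for complete inhibition of growth.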

Experiments:
Assay in all cases: NCI anticancer screen, dose series, 384-well format
786-0 renal = tested on: 786-0 renal
A498 renal = tested on: A498 renal
A549 NSCLC = tested on: A549 NSCLC
ACHN renal = tested on: ACHN renal
BT-549 breast = tested on: BT-549 breast
CAKI-1 renal = tested on: CAKI-1 renal
CCRF-CEM leukemia = tested on: CCRF-CEM leukemia
COLO 205 colon = tested on: COLO 205 colon
DU-145 prostate = tested on: DU-145 prostate
EKVX NSCLC = tested on: EKVX NSCLC
HCC-2998 colon = tested on: HCC-2998 colon
HCT-116 colon = tested on: HCT-116 colon
HCT-15 colon = tested on: HCT-15 colon
HOP-62 NSCLC = tested on: HOP-62 NSCLC
HOP-92 NSCLC = tested on: HOP-92 NSCLC
HT29 colon = tested on: HT29 colon
IGROV1 ovarian = tested on: IGROV1 ovarian
K-562 leukemia = tested on: K-562 leukemia
LOX IMVI melanoma = tested on: LOX IMVI melanoma
MALME-3M melanoma = tested on: MALME-3M melanoma
MDA-MB-231 breast = tested on: MDA-MB-231 breast
MDA-MB-435 melanoma = tested on: MDA-MB-435 melanoma
MDA-MB-468 breast = tested on: MDA-MB-468 breast
NCI-H226 lung = tested on: NCI-H226 lung
NCI/ADR-RES ovarian = tested on: NCI/ADR-RES ovarian
OVCAR-3 ovarian = tested on: OVCAR-3 ovarian
OVCAR-4 ovarian = tested on: OVCAR-4 ovarian
OVCAR-5 ovarian = tested on: OVCAR-5 ovarian
OVCAR-8 ovarian = tested on: OVCAR-8 ovarian
PC-3 prostate = tested on: PC-3 prostate
RPMI-8226 leukemia = tested on: RPMI-8226 leukemia
RXF 393 renal = tested on: RXF 393 renal
SF-268 CNS = tested on: SF-268 CNS
SF-295 CNS = tested on: SF-295 CNS
SF-539 CNS = tested on: SF-539 CNS
SK-MEL-2 melanoma = tested on: SK-MEL-2 melanoma
SK-MEL-28 melanoma = tested on: SK-MEL-28 melanoma
SK-MEL-5 melanoma = tested on: SK-MEL-5 melanoma
SN12C renal = tested on: SN12C renal
SNB-75 CNS = tested on: SNB-75 CNS
SR leukemia = tested on: SR leukemia
T-47D breast = tested on: T-47D breast
TK-10 renal = tested on: TK-10 renal
U251 glioblastoma = tested on: U251 glioblastoma
UACC-257 melanoma = tested on: UACC-257 melanoma
UACC-62 melanoma = tested on: UACC-62 melanoma
UO-31 renal = tested on: UO-31 renal

`C[C@H](NC(=O)CCC(F)(F)F)C(=O)N[C@@H]1C(=O)N(CCO)c2ncccc2-c2ccccc21` was tested, and the GI50 ([…]-0 renal) was over 100 µM, the TGI (786-0 renal) was over 100 µM and the GI50 (A498 renal) was over 100 µM. It also gave a TGI (A498 renal) of over 100 µM, a GI50 (A549 NSCLC) of over 100 µM and a TGI (A549 NSCLC) of over 100 µM. For the same molecule, the GI50 (ACHN renal) was over 100 µM, the TGI (ACHN renal) was over 100 µM and the GI50 (BT-549 breast) was over 100 µM. For the same molecule, the TGI (BT-549 breast) was over 100 µM, the GI50 (CAKI-1 renal) was over 100 µM and the TGI (CAKI-1 renal) was over 100 µM. It also gave a GI50 (CCRF-CEM leukemia) of 22.9 µM, a TGI (CCRF-CEM leukemia) of over 56.2 µM and a GI50 (COLO 205 colon) of over 100 µM. It also gave a TGI (COLO 205 colon) of over 100 µM, a GI50 (DU-145 prostate) of over 100 µM and a TGI (DU-145 prostate) of over 100 µM. For the same molecule, the GI50 (EKVX NSCLC) was over 100 µM, the TGI (EKVX NSCLC) was over 100 µM and the GI50 (HCC-2998 colon) was over 100 µM. It also gave a TGI (HCC-2998 colon) of over 100 µM, a GI50 (HCT-116 colon) of over 100 µM and a TGI (HCT-116 colon) of over 100 µM. It also gave a GI50 (HCT-15 colon) of over 100 µM, a TGI (HCT-15 colon) of over 100 µM and a GI50 (HOP-62 NSCLC) of over 100 µM. The TGI (HOP-62 NSCLC) was over 100 µM, the GI50 (HOP-92 NSCLC) was over 100 µM and the TGI (HOP-92 NSCLC) was over 100 µM. The GI50 (HT29 colon) was over 100 µM, the TGI (HT29 colon) was over 100 µM and the GI50 (IGROV1 ovarian) was over 100 µM. For the same molecule, the TGI (IGROV1 ovarian) was over 100 µM, the GI50 (K-562 leukemia) was 41.6 µM and the TGI (K-562 leukemia) was over 91.3 µM. The GI50 (LOX IMVI melanoma) was 43.3 µM, the TGI (LOX IMVI melanoma) was over 100 µM and the GI50 (MALME-3M melanoma) was over 100 µM. For the same molecule, the TGI (MALME-3M melanoma) was over 100 µM, the GI50 (MDA-MB-231 breast) was over 100 µM and the TGI (MDA-MB-231 breast) was over 100 µM. The GI50 (MDA-MB-435 melanoma) was over 100 µM, the TGI (MDA-MB-435 melanoma) was over 100 µM and the GI50 (MDA-MB-468 breast) was over 100 µM. The TGI (MDA-MB-468 breast) was over 100 µM, the GI50 (NCI-H226 lung) was over 100 µM and the TGI (NCI-H226 lung) was over 100 µM. It also gave a GI50 (NCI/ADR-RES ovarian) of over 100 µM, a TGI (NCI/ADR-RES ovarian) of over 100 µM and a GI50 (OVCAR-3 ovarian) of over 100 µM. It also gave a TGI (OVCAR-3 ovarian) of over 100 µM, a GI50 (OVCAR-4 ovarian) of over 100 µM and a TGI (OVCAR-4 ovarian) of over 100 µM. For the same molecule, the GI50 (OVCAR-5 ovarian) was over 100 µM, the TGI (OVCAR-5 ovarian) was over 100 µM and the GI50 (OVCAR-8 ovarian) was over 100 µM. It also gave a TGI (OVCAR-8 ovarian) of over 100 µM, a GI50 (PC-3 prostate) of over 100 µM and a TGI (PC-3 prostate) of over 100 µM. It also gave a GI50 (RPMI-8226 leukemia) of 49.8 µM, a TGI (RPMI-8226 leukemia) of over 100 µM and a GI50 (RXF 393 renal) of over 100 µM. It also gave a TGI (RXF 393 renal) of over 100 µM, a GI50 (SF-268 CNS) of over 100 µM and a TGI (SF-268 CNS) of over 100 µM. It also gave a GI50 (SF-295 CNS) of over 100 µM, a TGI (SF-295 CNS) of over 100 µM and a GI50 (SF-539 CNS) of over 100 µM. The TGI (SF-539 CNS) was over 100 µM, the GI50 (SK-MEL-2 melanoma) was over 100 µM and the TGI (SK-MEL-2 melanoma) was over 100 µM. For the same molecule, the GI50 (SK-MEL-28 melanoma) was over 100 µM, the TGI (SK-MEL-28 melanoma) was over 100 µM and the GI50 (SK-MEL-5 melanoma) was over 100 µM. It also gave a TGI (SK-MEL-5 melanoma) of over 100 µM, a GI50 (SN12C renal) of over 100 µM and a TGI (SN12C renal) of over 100 µM. It also gave a GI50 (SNB-75 CNS) of over 100 µM, a TGI (SNB-75 CNS) of over 100 µM and a GI50 (SR leukemia) of 64 µM. The TGI (SR leukemia) was over 100 µM, the GI50 (T-47D breast) was over 100 µM and the TGI (T-47D breast) was over 100 µM. It also gave a GI50 (TK-10 renal) of over 100 µM, a TGI (TK-10 renal) of over 100 µM and a GI50 (U251 glioblastoma) of over 100 µM. For the same molecule, the TGI (U251 glioblastoma) was over 100 µM, the GI50 (UACC-257 melanoma) was over 100 µM and the TGI (UACC-257 melanoma) was over 100 µM. For the same molecule, the GI50 (UACC-62 melanoma) was over 100 µM, the TGI (UACC-62 melanoma) was over 100 µM and the GI50 (UO-31 renal) was over 100 µM. It also gave a TGI (UO-31 renal) of over 100 µM.
